Assay results reported in patent US4942226A, “Halogenated pyrimidine nucleosides and their derivatives” (Merck & Co., Inc., priority 1988, dated 1990).
Structures can show the parent of a compound that is named as a salt. Where two headings read alike, the source gives them in different places.

Assay: Determination of Ester Half-lives (conversion of ester to alcohol in phosphate buffer at 37°, HPLC)
Format: physicochemical
Conditions: read-out: t1/2 (time required for 50% conversion of ester to alcohol)
Protocol: Determination of Ester Half-lives
Two mL of phosphate buffer preheated to 37° were added to approximately 0.5 mg of the ester dihydrochloride. The resulting solution was heated at 37° while 20 μL samples were removed at intervals and injected directly into the HPLC injection port.
Unreacted ester and 5-halo-2'-deoxyuridine concentrations were determined by HPLC analysis on a C-18 reverse phase column using a gradient of 98% pH 2.4 phosphoric acid--2% acetonitrile to 70% pH 2.4 phosphoric acid--30% acetonitrile over 10 minutes. The UV detector was set at 280 nm. The half-life (t1/2) is the time required for 50% conversion of ester to alcohol.

Row | half-life (pH 6.8, 37°) [min] | half-life (pH 7.4, 37°) [min] | Compound
1 | 35 | 22 | O=C(CNCCNCCC1CCCCC1)OC[C@H]1O[C@@H](n2cc(Br)c(=O)[nH]c2=O)C[C@@H]1O [Example 3, 5-Bromo-2'-deoxyuridine 5'-N-(2-(2-cyclohexylethylamino)ethyl]glycyl Ester Dihydrochloride]
2 | 47 | 29 | O=C(CNCCNCCC1CCCCC1)O[C@H]1C[C@H](n2cc(Br)c(=O)[nH]c2=O)O[C@@H]1CO [Example 2, 5-Bromo-2'-deoxyuridine 3'-[N-(2-(2-Cyclohexylethylamino)ethyl)glycyl]esterDihydrochloride]
3 | 32 | 26 | CCNCCNCC(=O)O[C@H]1C[C@H](n2cc(Br)c(=O)[nH]c2=O)O[C@@H]1CO [Example 1, 5-Bromo-2'-deoxyuridine 3'-N-(2-Ethylaminoethyl)-glycyl Ester Dihydrochloride]
